Laboratory results as given in US10398689B2, “Benzopiperidine derivative, preparation method thereof and medical use thereof” (Jiangsu Hengrui Medicine Co., Ltd., priority 2015, dated 2019).

Experiments:
Format in all cases: cell-based
ER (estrogen receptor) = target: T1, ER (estrogen receptor) (Homo sapiens, UniProt P03372); test: Inhibition of the binding of estrogen (E) to estrogen receptor (ER), MCF-7/ERE-luciferase reporter cells; conditions: MCF-7/ERE-luciferase cells, 0.1 nM estradiol, 24 hours, chemiluminescence; read-out: IC50 value of inhibition effect on the binding of E to ER
T1 construct: MCF-7/ERE-luciferase monoclonal cells were selected by transfection of MCF-7; host or cells: MCF-7/ERE-luciferase (only the ERE-luciferase reporter was transfected)
T1 sequence (P03372 1-595): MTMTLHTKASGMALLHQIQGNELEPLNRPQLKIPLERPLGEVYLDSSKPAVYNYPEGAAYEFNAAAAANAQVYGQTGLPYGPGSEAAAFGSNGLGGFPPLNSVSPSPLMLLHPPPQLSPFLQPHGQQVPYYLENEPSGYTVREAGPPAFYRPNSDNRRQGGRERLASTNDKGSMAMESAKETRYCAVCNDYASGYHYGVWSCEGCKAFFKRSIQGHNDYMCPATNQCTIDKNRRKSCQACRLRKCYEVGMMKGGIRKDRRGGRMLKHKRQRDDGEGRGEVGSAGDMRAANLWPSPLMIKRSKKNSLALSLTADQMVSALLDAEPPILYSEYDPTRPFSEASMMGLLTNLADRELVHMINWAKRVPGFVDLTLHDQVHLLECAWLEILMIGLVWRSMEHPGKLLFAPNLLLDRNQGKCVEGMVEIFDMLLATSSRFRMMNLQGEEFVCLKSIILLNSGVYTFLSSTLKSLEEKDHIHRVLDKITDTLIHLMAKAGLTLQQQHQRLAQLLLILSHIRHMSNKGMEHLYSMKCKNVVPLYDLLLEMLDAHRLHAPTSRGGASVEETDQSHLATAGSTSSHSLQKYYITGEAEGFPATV
Procedure: The compounds of the present invention have an inhibition effect on the binding of E (estrogen) to ER (estrogen receptor), thereby blocking the binding of a complex of E and ER complex to ERE (estrogen responsive element), and subsequently blocking the expression of downstream luciferase protein.
The inhibition effect of the compounds on the binding of E to ER in vitro was tested by the following method.
The object of this experiment was to determine the inhibition effect of the compounds on the binding of E to ER, and the in vitro activity of the compounds was evaluated according to the IC50 values.
ERE was cloned into the upstream of the luciferase gene, and MCF-7/ERE-luciferase monoclonal cells were selected by transfection of MCF-7 (Cell Bank of Chinese Academy of Sciences typical culture preservation Committee, TCHu74). MCF-7/ERE-luciferase cells were inoculated into the MEM medium (hyclone, SH30024.01B) containing 10% charcoal stripped FBS (Moregate, FBSF), 1% sodium pyruvate (Sigma, S8636), 1% nonessential amino acids (Sigma, M7145) and 500 μg/ml G418 in a 96-well plates with a density of 30,000 cells/well, and the cells were incubated under the conditions of 37° C., and 5% CO2. The drug was prepared as a 20 mM stock solution that was later diluted with 100% DMSO in 10 fold concentration gradient, and then diluted 20-fold with the medium DMEM. After incubation for 24 hours, the medium was removed, then 0.1 nM estradiol (Sigma, E2758) and 10 μl of the drug diluted with the medium were added to each well, and the control group was added with DMSO. The plate was gently shaken and incubated in a incubator at 37° C., 5% CO2. After 24 hours, the cell culture medium was discarded, Then, 50 μl of the prepared luciferase substrate (Promega, E6110) was added to each well, and the plate was placed in the dark at room temperature for 10-15 minutes, then the chemiluminescence signal value was determined.
The inhibition effect of the compounds of the present invention on the binding of E to ER was tested by the experiment described above. The values of the chemiluminescence signal vs the logarithmic concentrations of the compounds were plotted using Graphpad Prism, and the measured IC50 values are shown in Table 1.

MCF7 cells = test: Inhibition of the proliferation of MCF7 cells (Cell Titer-Glo); conditions: Homo sapiens, MCF-7 cells, 72 hours, read-out: IC50 value of inhibition effect on the proliferation of MCF7 cells
Procedure: The object of this experiment was to determine the inhibition effect of the compounds on the proliferation activity of MCF7 cells, and the in vitro activity of the compounds was evaluated according to the IC50 values.
MCF-7 cells (Cell Bank of Chinese Academy of Sciences typical culture preservation Committee, TChu 74) were inoculated into the MEM medium (Hyclone, SH30024.01B) containing 10% FBS (Gibco, 10099-141), 1% sodium pyruvate (Sigma, S8636), and 1% nonessential amino acids (Sigma, M7145) in a 96-well plate with a density of 40,000 cells/well, and the cells were incubated under the conditions of 37° C., and 5% CO2. The compound was prepared as a 20 mM stock solution that was later diluted to 1000× final concentration with 100% DMSO, and then diluted with 20-fold medium containing 2% FBS. After incubation for 24 hours, the medium was removed and 90 μl of the medium containing 2% FBS and 10 μl of the drug were added to each well, 10 […] of DMSO was added to the control group, and the blank group contained only 100 μl medium containing 2% FBS. The plate was gently shaken and incubated in a incubator at 37° C., 5% CO2. After 72 hours later, 50 μl of mixed Cell Titer-Glo (Promega, G7571) was added to each well. The plate was shaken until the ingredients were mixed uniformly, and placed at room temperature for 10 minutes, then the chemiluminescence signal value was determined. The inhibition effect of the compound AZD9496 at 100 nM on the proliferation of MCF-7 cells was set to 100%, the maximum inhibition rate of other compounds=(chemiluminescence signal valuenegative control−chemiluminescence signal valuecompound 100 nm)/(chemiluminescence signal valuenegative control−chemiluminescence signal valueAZD9496 100 nm)×100%, and the negative control was a well with 0.5% DMSO.
The values of the chemiluminescence signals vs the logarithmic concentrations of the compounds were plotted using Graghpad Prism to obtain the IC50 values.

ERα = target: T2, ERα (Homo sapiens, UniProt P03372); test: Degradation effect on ERα in MCF-7 cells (ERα Duoset ELISA); conditions: MCF7; compound at 3 μM, relative to positive control AZD-9496 at 3 μM set to 100%
T2 construct: host or cells: MCF-7
T2 sequence (P03372 1-595): T1 sequence (P03372 1-595)
Procedure: In order to determine the degradation effect on ER induced by the compound of present invention, the following method was used to determine the degradation effect of the compounds of the present invention on ER.
MCF-7 cell line (TChu 74, Cell Bank of Chinese Academy of Sciences typical culture preservation Committee)
ERα Duoset Kit (#DYC5715E, R&D System)
MCF-7 cells well incubated in DMEM/F-12 medium containing 10% FBS.
On the first day of the experiment, MCF-7 cells were resuspended in DMEM/F-12 medium containing 10% FBS treated by activated carbon, then inoculated into a 48-well plate with a density of 50,000 cells/well and incubated for 22-24 hours.
On the second day of the experiment, the test compound was diluted with medium and added to a 48-well plate. The ERα-capture antibody was diluted to 1 μg/ml with PBS, and added with 100 μl/well to a 96-well plate at 100 μl/well. The plate was sealed and coated overnight at room temperature.
On the third day of the experiment, the coated 96-well plate was washed twice with PBS, added with a sealing solution (1% BSA in PBS) at 110 μl/well and sealed for 1 hour at room temperature. The 48-well plate was washed once and the residual liquid was removed. Then, 60 μl of lysis buffer (6 M urea, 1 mM EDTA, 0.5% Triton X-100, 1 mM PMSF, Protease Inhibitor cocktail) was added to each well. After lysis on ice for 15 minutes, the diluent (1 mM EDTA, 0.5% TritonX-100 dissolved in PBS) was added. The cell-diluted lysate was transferred to a 96-well plate at 100 μl/well, then the plate was incubated at room temperature for 2 hours. The diluted primary antibody was added after the plate was washed 4 times with a washing liquid (PBST). After incubation for 1 hour, the 96-well plate was washed 4 times, and the second antibody was added, then the plate was incubated for 30 minutes. After the plate was washed with a washing liquid, TMB chromogenic solution was added and incubated for 15 minutes. The reaction was stopped by the addition of 1 M H2SO4, then the light absorption at a wavelength of 450 nm was read. The degradation effect of the compound AZD9496 at 3 μM was set to 100%, the Emax of other compounds=(ODnegative control−ODcompound 3 μM)/(ODnegative control−ODAZD9496 3 μM)×100%, and the negative control was a well with DMSO.

IC50 (ER (estrogen receptor)) | IC50 (MCF7 cells) | Emax at 3 µM (ERα) | Compound
0.6 nM | 0.23 nM | 115% | CC(C)c1ccc(N2[C@@H](c3c(F)cc(/C=C/C(=O)O)cc3F)c3ccc(-c4cnn(C)c4)cc3C[C@@H]2C)cc1 (racemic) [Example 40, (E)-3-(3,5-Difluoro-4-((1S,3R/1R,3S)-2-(4-isopropylphenyl)-3-methyl-6-(1-methyl-1H-pyrazol-4-yl)-1,2,3,4-tetrahydroisoquinolin-1-yl)phenyl)acrylic acid]
1.71 nM | 0.4 nM | 114% | CCc1ccc(N2[C@H](c3ccc(/C=C/C(=O)O)cc3)c3ccc(-c4cnn(C)c4)cc3C[C@H]2C)cc1 [Example 2, (E)-3-(4-((1R,3R)-2-(4-Ethylphenyl)-3-methyl-6-(1-methyl-1H-pyrazol-4-yl)-1,2,3,4-tetrahydroisoquinolin-1-yl)phenyl)acrylic acid]
0.27 nM | 0.42 nM | 136% | CC1Cc2cc(-c3cnn(C)c3)ccc2C(c2c(F)cc(/C=C/C(=O)O)cc2F)N1c1ccc(C2CC2)cc1 [Example 4, (E)-3-(4-((1S,3R/1R,3S)-2-(4-Cyclopropylphenyl)-3-methyl-6-(1-methyl-1H-pyrazol-4-yl)-1,2,3,4-tetrahydroisoquinolin-1-yl)-3,5-difluorophenyl)acrylic acid]
1.42 nM | 0.65 nM | 111% | COc1ccc(N2C(C)Cc3cc(-c4cnn(C)c4)ccc3C2c2ccc(/C=C/C(=O)O)cc2)cc1 [Example 46, (E)-3-(4-((1R,3R/1S,3S)-2-(4-Methoxyphenyl)-3-methyl-6-(1-methyl-1H-pyrazol-4-yl)-1,2,3,4-tetrahydroisoquinolin-1-yl)phenyl)acrylic acid]
